Source: US20240279298A1 (BEIJING TUO JIE BIOPHARMACEUTICAL CO. LTD., priority 2021, published 2024)
Converted amounts (≈) assume the structure as drawn. Where a SMILES comes first, the peptide text is derived from it. [ ]: non-standard residue; d: D form. Aib = CC(C)(N)C(=O)O

Tests used:
[1] = Maximum solubility in phosphate buffer pH 7.4; assay type: physicochemical; conditions: phosphate buffer pH 7.4, room temperature
[2] = test system: human kidney microsomes; experiment: Stability in human kidney microsome incubation system
[3] = test system: human liver microsomes; experiment: Stability in human liver microsome incubation system
[4] = in vitro; conditions: human
[5] = Chemical stability in phosphate buffer (UPLC purity); assay type: physicochemical; conditions: phosphate buffer pH 7.4, 1 mg/mL
[6] = in vitro; conditions: human; remark: listed apart in the source
[7] = test system: rat erythrocyte suspension; experiment: Hemolysis assay; conditions: for Hemolysis rate: 37° C., 1 hour
[8] = Pharmacokinetics in rats after subcutaneous injection; assay type: in vivo, SD rats; conditions: plasma
Experimental: (1) Animals were grouped according to Table 12, and were given free access to water and food before administration.
• Sampling time: 0 min pre-dose, and 2 min, 4 min, 7 min, 10 min, 20 min, 40 min, 1 h and 2 h post-dose. Blood was collected from rats by jugular catheterization.
• 1) 0.2 mL of whole blood was collected at each time point into a centrifuge tube containing EDTA-K2; • 2) The blood samples were centrifuged at 4000 g at 4° C. for 5 min, and separated to give the plasma; • 3) The plasma samples were cryopreserved at −80° C.
The mixture was vortexed for 5 min and centrifuged at a low temperature for 10 min. 100 μL of the supernatant was taken and added to 100 μL of 0.1% formic acid aqueous solution. The mixture was mixed well, and loaded on the instrument for analysis; • Liquid chromatography and mass spectrometry analysis: LC-30A liquid chromatography system (Shimadzu, Japan) and API 5500 liquid chromatography-triple quadrupole mass spectrometer (Analyst Software data processing system, AB Sciex, USA) were used. The chromatographic column was nanomicro Unisil C18aq (4.6 mm×150 mm, 5 μm) chromatographic column; the column temperature was 40° C.; the mobile phase A was 0.1% formic acid aqueous solution, and the mobile phase B was 0.1% formic acid in acetonitrile; the flow rate was 0.5 mL/min; the injection volume was 20 μL; the gradient is shown in Table 13 below. The mass spectrum was obtained using an electrospray ionization (ESI) source, a positive ion analysis mode and a multi reaction monitoring (MRM) scanning mode.
The plasma concentration of the test compounds was measured by HPLC-MS/MS. The plasma concentration-time curve was plotted, and the pharmacokinetic parameters were calculated by PKSolver.

[9] = test system: insulin-induced hypoglycemia rat model; experiment: Efficacy in insulin-induced hypoglycemic rat model; assay type: in vivo, SD rats; conditions: insulin 0.65 IU/kg at T0; 12 nmol/kg subcutaneous at 45 min
[10] = test system: normal rats (blood glucose); experiment: Efficacy in normoglycemic rat model; assay type: in vivo, SD rats; conditions: normal rats, 2 nmol/kg subcutaneous single dose
[11] = biological target: T1, human glucagon receptor (GCGR) (Homo sapiens, UniProt P47871); experiment: Agonist activity assay for GCGR (cAMP HTRF); assay type: cell-based; conditions: normalized by the activity of the native glucagon
T1 construct: expressed in transfected cells
Experimental: The activation of GCGR by related compounds will stimulate the formation of cyclic adenosine monophosphate (cAMP) in cells. Thus, the receptor activity can be monitored by cAMP production in proper cells expressing the receptor. […] The cells were passaged at least once for subsequent tests. Before testing, the cells were trypsinized, centrifuged, washed once, and resuspended in serum-free DMEM/F12 medium. The cell density was adjusted, and the cells were plated in a 96-well plate at a density of 2,500 cells/5 μL/well. […] The mixture was mixed well by moderate vibration, and incubated for 1 hour at room temperature away from light.

T1 sequence (P47871 26-477): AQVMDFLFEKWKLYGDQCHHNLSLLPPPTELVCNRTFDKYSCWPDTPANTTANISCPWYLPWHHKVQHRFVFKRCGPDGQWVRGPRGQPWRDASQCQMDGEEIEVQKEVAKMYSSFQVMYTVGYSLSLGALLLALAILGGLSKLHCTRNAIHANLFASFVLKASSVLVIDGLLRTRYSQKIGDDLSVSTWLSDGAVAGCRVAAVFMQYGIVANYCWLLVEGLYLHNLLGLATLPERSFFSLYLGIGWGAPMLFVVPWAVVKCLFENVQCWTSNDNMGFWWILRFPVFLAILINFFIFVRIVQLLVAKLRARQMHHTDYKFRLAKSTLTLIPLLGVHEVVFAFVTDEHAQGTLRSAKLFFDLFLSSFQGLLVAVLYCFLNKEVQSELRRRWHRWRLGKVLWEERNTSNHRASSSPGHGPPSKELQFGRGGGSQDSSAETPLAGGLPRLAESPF

With `CC(C)C[C@H](NC(=O)[C@H](Cc1ccc(O)cc1)NC(=O)[C@H](CCCCN)NC(=O)[C@H](CO)NC(=O)[C@H](Cc1ccc(O)cc1)NC(=O)[C@H](CC(=O)O)NC(=O)[C@H](CO)NC(=O)[C@@H](NC(=O)[C@H](Cc1ccccc1)NC(=O)[C@@H](NC(=O)CNC(=O)[C@H](CCC(N)=O)NC(=O)[C@H](CO)NC(=O)[C@@H](N)Cc1c[nH]cn1)[C@@H](C)O)[C@@H](C)O)C(=O)N[C@@H](CCC(=O)O)C(=O)N[C@@H](CO)C(=O)NC(C)(C)C(=O)N[C@@H](CCCNC(=N)N)C(=O)N[C@@H](C)C(=O)N[C@@H](CCC(=O)O)C(=O)N[C@@H](CC(=O)O)C(=O)N[C@@H](Cc1ccccc1)C(=O)N[C@H](C(=O)N[C@@H](CCCNC(=N)N)C(=O)N[C@@H](Cc1c[nH]c2ccccc12)C(=O)N[C@@H](CC(C)C)C(=O)N[C@@H](CCC(=O)O)C(=O)N[C@@H](CO)C(=O)N[C@H](C(=O)O)[C@@H](C)O)C(C)C` [Compound 38] (H-HSQGTFTSDYSKYLES[Aib]RAEDFVRWLEST-OH) as the compound, how does the solubility [1] read?
Its solubility is greater than 16400 µg/mL.

Which results are given for `CC(C)C[C@H](NC(=O)[C@H](Cc1c[nH]c2ccccc12)NC(=O)[C@H](CCCCN)NC(=O)[C@@H](NC(=O)[C@H](Cc1ccccc1)NC(=O)[C@H](CCC(=O)O)NC(=O)[C@H](CCC(=O)O)NC(=O)[C@H](C)NC(=O)[C@H](CCCNC(=N)N)NC(=O)[C@H](C)NC(=O)C(C)(C)NC(=O)[C@H](CC(=O)O)NC(=O)[C@H](CC(C)C)NC(=O)[C@H](Cc1ccc(O)cc1)NC(=O)[C@H](CCCCN)NC(=O)[C@H](CO)NC(=O)[C@H](Cc1ccc(O)cc1)NC(=O)[C@H](CC(=O)O)NC(=O)[C@H](CO)NC(=O)[C@@H](NC(=O)[C@H](Cc1ccccc1)NC(=O)[C@@H](NC(=O)CNC(=O)[C@H](CCC(N)=O)NC(=O)[C@H](CO)NC(=O)[C@@H](N)Cc1c[nH]cn1)[C@@H](C)O)[C@@H](C)O)C(C)C)C(=O)N[C@@H](CCC(=O)O)C(=O)N[C@@H](CO)C(=O)N[C@H](C(=O)O)[C@@H](C)O` [Dasiglucagon, reference compound]?
Percentage residues 0 min ([2]; With NADPH): 100.0%; Percentage residues 0 min ([2]; Without NADPH): 100.0%; Percentage residues 15 min ([2]; Without NADPH): 73.24%; Percentage residues 30 min ([2]; Without NADPH): 55.17%; Percentage residues 60 min ([2]; Without NADPH): 33.12%; Percentage residues 120 min ([2]; Without NADPH): 19.74%; T½ ([2]; Without NADPH, 1 μM): 51.98 min; Percentage residues 0 min ([3]; With NADPH): 100.0%; Percentage residues 0 min ([3]; Without NADPH): 100.0%; Percentage residues 15 min ([3]; Without NADPH): 91.65%; Percentage residues 30 min ([3]; Without NADPH): 88.78%; Percentage residues 60 min ([3]; Without NADPH): 71.74%; Percentage residues 120 min ([3]; Without NADPH): 53.48%; T½ ([3]; Without NADPH, 1 μM): 125.37 min; remaining at 0.25 h, 1 μM ([4]; human liver microsomes): 91.8%; remaining at 0.5 h, 1 μM ([4]; human liver microsomes): 91.6%; remaining at 1 h, 1 μM ([4]; human liver microsomes): 81.1%; remaining at 2 h, 1 μM ([4]; human liver microsomes): 59.2%; half-life at 1 μM ([4]; liver microsomes): 162 min; Purity Day 7 ([5]; 4° C.): 98.66%; Purity Day 14 ([5]; 4° C.): 98.84%; Purity Day 21 ([5]; 4° C.): 99.85%; Purity Day 28 ([5]; 4° C.): 99.68%; Purity Day 7 ([5]; 25° C.): 98.07%; Purity Day 14 ([5]; 25° C.): 96.73%; Purity Day 21 ([5]; 25° C.): 96.68%; Purity Day 28 ([5]; 25° C.): 96.81%; Purity Day 0 ([5]; day 0 (normalization)): 100.00%; solubility at 5 min [1]: > 3750 µg/mL; remaining at 0.25 h, 1 μM ([6]; human kidney microsomes): 63.5%; remaining at 0.5 h, 1 μM ([6]; human kidney microsomes): 52.9%; remaining at 1 h, 1 μM ([6]; human kidney microsomes): 36.6%; remaining at 2 h, 1 μM ([6]; human kidney microsomes): 17.7%; half-life at 1 μM ([6]; kidney microsomes): 51.3 min; Hemolysis rate ([7]; 1 μg/mL): −4.69%; Hemolysis rate ([7]; 3 μg/mL): −4.77%; Hemolysis rate ([7]; 10 μg/mL): −4.05%; Hemolysis rate ([7]; 30 μg/mL): −5.23%; Hemolysis rate ([7]; 100 μg/mL): −5.52%; Hemolysis rate ([7]; 300 μg/mL): −4.63%; Hemolysis risk (in words) ([7]; concentrations ranging from 1 to 300 μg/mL): no significant risk of the hemolysis adverse effect was found; AUClast/D ([8]; male SD rats, single SC injection, Dasiglucagon 5 mg/kg, 40 5.06 mg/kg): 260 h·ng/mL per mg/kg; Tmax ([8]; male, SD, rat, sc): 10 min; half-life ([8]; male, SD, rat, sc, male SD rats, single SC injection, Dasiglucagon 5 mg/kg, 40 5.06 mg/kg): 30.6 min; bioavailability ([8]; male, SD, rat, sc, read-out: Bioavailability (F %)): 84.6%; Blood glucose 60 min [9]: 7.00 mmol/L; Blood glucose 75 min [9]: 9.52 mmol/L; Blood glucose 90 min [9]: 8.43 mmol/L; Blood glucose 105 min [9]: 7.47 mmol/L; Blood glucose 15 min [10]: 9.32 mmol/L; Blood glucose 30 min [10]: 7.73 mmol/L; Blood glucose 45 min [10]: 6.87 mmol/L; Blood glucose 60 min [10]: 6.08 mmol/L

With `CC(C)C[C@H](NC(=O)[C@H](Cc1ccc(O)cc1)NC(=O)[C@H](CCCCN)NC(=O)[C@H](CO)NC(=O)[C@H](Cc1ccc(O)cc1)NC(=O)[C@H](CC(=O)O)NC(=O)[C@H](CO)NC(=O)[C@@H](NC(=O)[C@H](Cc1ccccc1)NC(=O)[C@@H](NC(=O)CNC(=O)[C@H](Cc1c[nH]cn1)NC(=O)[C@H](CO)NC(=O)[C@@H](N)Cc1c[nH]cn1)[C@@H](C)O)[C@@H](C)O)C(=O)N[C@@H](CC(=O)O)C(=O)N[C@@H](CC(C)C)C(=O)NC(C)(C)C(=O)N[C@@H](CCCNC(=N)N)C(=O)N[C@@H](C)C(=O)N[C@@H](CCC(N)=O)C(=O)N[C@@H](CCC(=O)O)C(=O)N[C@@H](Cc1ccccc1)C(=O)N[C@H](C(=O)N[C@@H](CCC(N)=O)C(=O)N[C@@H](Cc1c[nH]c2ccccc12)C(=O)N[C@@H](CC(C)C)C(=O)N[C@@H](CCC(=O)O)C(=O)N[C@@H](CO)C(=O)N[C@H](C(=O)O)[C@@H](C)O)C(C)C` [Compound 43] (H-HSHGTFTSDYSKYLDL[Aib]RAQEFVQWLEST-OH) as the compound, how does the Relative activity [11] read?
The Relative activity was 371%.

And the solubility at 5 min [1]?
Its solubility at 5 min is 1620 µg/mL (≈ 472 µM).

Which Relative activity [11] does the source give for `CC(C)C[C@H](NC(=O)[C@H](Cc1ccc(O)cc1)NC(=O)[C@H](CCCCN)NC(=O)[C@H](CO)NC(=O)[C@H](Cc1ccc(O)cc1)NC(=O)[C@H](CC(=O)O)NC(=O)[C@H](CO)NC(=O)[C@@H](NC(=O)[C@H](Cc1ccccc1)NC(=O)[C@@H](NC(=O)CNC(=O)[C@H](Cc1c[nH]cn1)NC(=O)[C@H](CO)NC(=O)[C@@H](N)Cc1c[nH]cn1)[C@@H](C)O)[C@@H](C)O)C(=O)N[C@@H](CC(=O)O)C(=O)N[C@@H](CC(C)C)C(=O)NC(C)(C)C(=O)N[C@@H](CCCNC(=N)N)C(=O)N[C@@H](C)C(=O)N[C@@H](CCC(N)=O)C(=O)N[C@@H](CCC(=O)O)C(=O)N[C@@H](Cc1ccccc1)C(=O)N[C@H](C(=O)N[C@@H](CCC(=O)O)C(=O)N[C@@H](Cc1c[nH]c2ccccc12)C(=O)N[C@@H](CC(C)C)C(=O)N[C@@H](CCC(=O)O)C(=O)N[C@@H](CO)C(=O)N[C@H](C(=O)O)[C@@H](C)O)C(C)C` [Compound 47] (H-HSHGTFTSDYSKYLDL[Aib]RAQEFVEWLEST-OH) here?
Its Relative activity is 253%.

And the solubility at 5 min [1]?
The solubility at 5 min was greater than 2070 µg/mL.
